Assay [1] has as its system irradiated Hepa129 tumor cells. Nature of the assay: IFN-gamma ELISPOT of spleen cells from treated tumor-bearing mice stimulated with irradiated tumor cells. Format: in vivo, C3H mice. The note with it: 20-h ELISPOT, two-week treatment, versus the same antibody without Beleodaq. Here is the method: Treatment allocation were performed as follows for immune characterization study:
A single experiment was carried out for each drug, using n=5 animals per group.
Lymphoid organs (spleen, lymph nodes) were obtained from sacrificed animals, homogenized and cell suspensions were used to measure the following parameters:
ELISPOT: measuring the number of IFN-gamma spot forming cells after co-culture of lymphocytes with irradiated Hepa129 tumor cells.
Tumor-bearing mice were treated during two weeks and sacrificed to obtain their spleen and analyze immune-related parameters. For these experiments mice received two antibody administrations (days 0 and 7) and Beleodaq® (daily) during the two-week treatment period.
Functional assays: Spleen cells were stimulated with irradiated tumor cells to analyze antitumor T cell responses measured as IFN-gamma production using a 20-h ELISPOT assay.

Assay [2] deals with Hepa129 murine hepatocellular carcinoma cells. As to the kind of experiment: Antitumor efficacy in subcutaneous Hepa129 hepatocellular carcinoma mouse model. It counts as in vivo, C3H mice. The note with it: s.c. Hepa129 tumors, Beleodaq 90 mg/kg IP daily D7 to D27, antibodies 50 μg/mouse IP D7, D14. As for the experimental part:
As tumor model, Hepa129 murine hepatocellular carcinoma cells implanted subcutaneously in C3H mice were used. Hepa129 cells were maintained in culture up to 3 passages before injection in mice. Cells were sub-cultured three days before the day of injection.
The day of cell injection, Hepa129 cells were harvested and centrifuged at 1800 rpm for 5 min, and resuspended in PBS. Cells were counted in 0.04% Trypan Blue for viability quantification. Cells were resuspended in the adequate volume of PBS in order to have 10^6 cells in 100 μL. […] were subcutaneously injected into the right flank of mice.
When subcutaneous Hepa129 tumors reached a mean tumor diameter of about 5 mm (day 7), mice were allocated to treatment groups and identified individually by ear tags. Beleodaq® was administered IP daily at days 7 to 27 at 90 mg/kg. Antibodies Isotype control (2A3) and anti-CTLA-4 (9D9) (from BioXcell) were administered IP at days 7 and 14.
Treatment allocation were performed as follows for antitumor efficacy study:
Animals were monitored and sacrificed when tumor diameter reached 17 mm. Each experiment was carried out twice with n=8 animals per group.

For the next assay, the system named is 4T1 breast cancer cells. As to the kind of experiment: Orthotopic 4T1 breast cancer mouse model. The note with it: 4T1 in mammary fat gland; belinostat 80 mg/kg i.p. daily from day 8; antibodies 200 μg/mouse i.p. It counts as in vivo, Balb/C mouse. As for the experimental part:
The Belinostat treatment was formulated every one or two day.
The aPD1 treatment solutions were prepared on the days of the treatment (days 8, 12, 16 and 20).
The aCTLA4 treatment solutions were prepared on days 7, 11, 16 and 20 and stored at 4° C.
4T1 breast cancer cells (5*10^5 cells per Balb/C mouse) were in occulated in the mammary fat gland of Balb/C females. The 4T1 (ATCC CRL-2539) cells were bought from ATCC and cultured in RPMI-1640 Medium containing 10% fetal bovine serum. Cells were passaged 5-10 times before in inoculation. Cells were detached with trypsin, washed twice in PBS, centrifuged and resuspended in PBS. Cell viability was checked by a staining with […] and cells were used when viability was higher than 95%. Cells were counted manually and adjusted to 5*10^6 cells per ml. Finally 100 μl were injected.

Take `O=C(/C=C/c1cccc(S(=O)(=O)Nc2ccccc2)c1)NO` [Beleodaq®, (2E)-N-hydroxy-3-[3-(phenylsulfamoyl)phenyl]prop-2-enamide]: the “antitumor T cell responses measured as IFN-gamma production” value in assay [1] was “no significant differences”. Further, in assay [2], the tumor growth entry is “did not modify”. Also, in assay [2] (sacrificed when tumor diameter reached 17 mm), the animal survival result is “did not modify”. Further, in the assay on 4T1 breast cancer cells, the “apparent external tumor size” value was “reduced” and the mortality entry is on record as “reduced”.

The record behind these values is patent publication US20200121699A1, “COMBINATION THERAPIES COMPRISING IMMUNO-ONCOLOGY AGENTS AND BELINOSTAT” (ONXEO, priority 2016, published 2020).
